Assay results: article PMC5017749, “Preclinical Metabolism, Pharmacokinetics and In Vivo Analysis of New Blood-Brain-Barrier Penetrant Fingolimod Analogues: FTY720-C2 and FTY720-Mitoxy” (PLoS ONE, 2016)
Where two headings read alike, the source gives them in different places.

Assays:
[1] = Metabolic stability (intrinsic clearance) in human liver microsomes; type: in vitro ADME
Protocol: (§1) Liver microsomal incubations contained 0.1mg/mL microsomal proteins and 1 μM of FTY720-C2 or FTY720-Mitoxy in 100 mM potassium phosphate buffer (pH 7.4) ± an NADPH regenerating system (3.5 mM glucose 6-phosphate, 1.3 mM NADP^+, and 0.4 units/mL glucose-6-phosphate dehydrogenase). Following incubations, reactions were terminated for analysis after 0, 10, 20, 30, and 60 min by the addition of acetonitrile containing C17 sphingosine (300 ng/mL) as the internal standard. Samples were vigorously mixed and centrifuged at 3,400 rpm for 10 min to pellet precipitated proteins. An aliquot of each supernatant was used for LC/MS analysis, for determination of the remaining FTY720-C2 and FTY720-Mitoxy. Similar incubations were performed using a cocktail solution containing 0.2 μM midazolam and 1 μM diclofenac to determine the metabolic activity of the microsomes as an additional control.
(§2) Samples resulting from liver microsomal incubations were analyzed by LC-MS/MS. Aliquots of the supernatants were injected onto an X-Bridge C18 column (2.1 × 50 mm, 3.5-μm particles) (Waters, Milford, MA), preceded by a SecurityGuard C18 guard column (4.0 × 2.0 mm; Phenomenex Inc.). Separations were accomplished with a gradient of 0.1% acetic acid in water (v/v) versus 0.1% acetic acid in acetonitrile: methanol (75:25, v/v) at a rate of 0.8 mL/min. The eluents were further applied into an equipped API 4000 QTrap mass spectrometer (AB Sciex, Foster City, CA) with electrospray ionization (ESI) interface by two coupled LC-10 AT pumps. Peak area ratios of FTY720-C2 or FTY720-Mitoxy against the C17 sphingosine internal standard were used to determine the amount of parent remaining compared to that at 0 min. The percent of FTY720-C2 or FTY720-Mitoxy remaining was calculated by dividing the peak area ratio obtained at each time point by that obtained at 0 min. The in vitro intrinsic clearance (CLint) was calculated by linear regression of the log percent of compound remaining versus time plots using Microsoft Excel, two independent experiments (n = 2) were performed for each compound and species. Then, the mean and standard deviation (SD), of two values for each condition, were calculated using Microsoft Excel with the “AVERAGE” and “STDEV” functions, respectively.

[2] = Metabolic stability (intrinsic clearance) in mouse liver microsomes; type: in vitro ADME, mouse (CD-1); conditions: mouse liver microsomes
Protocol: as §1, §2

[3] = Metabolic stability (intrinsic clearance) in dog liver microsomes; type: in vitro ADME, dog (Beagle); conditions: dog liver microsomes
Protocol: as §1, §2

[4] = Metabolite profiling and identification in rat hepatocytes; type: in vitro ADME, rat (Sprague Dawley); design: key to Source (peak identified in rat hepatocytes): R = Rat; hr = Human; lowercase letter indicates low abundance; h: lowercase letter indicates low abundance; conditions: for Percent Distribution (1 hr incubation) Rat / Percent Distribution (2 hr incubation) Rat: relative abundance among metabolites of the parent (1 μM), equal LC/MS sensitivity assumed
Protocol: (§3) Cryopreserved hepatocytes were grown in culture and incubations were performed to generate samples to measure the formation of FTY720-C2 and FTY720-Mitoxy metabolites. Incubations of 1 mL medium containing 1 million cells and 1 μM of FTY720-C2 and FTY720-Mitoxy were conducted at 37° C in a 5% CO2 incubator for 0, 1 and 2 hr, with gentle shaking. Positive control incubations used a cocktail solution containing 10 μM testosterone and 10 μM diclofenac performed for 0, 1 and 2 hr, under similar conditions to confirm the metabolic activity of the hepatocytes. The reactions were terminated by adding 2 mL acetonitrile containing 0.02% formic acid, and thoroughly mixing with gentle vortexing. Samples were transferred into 6 mL vials and stored in the freezer (-70°C) overnight for protein precipitation. Following overnight precipitations, samples were centrifuged at 3,000 rpm for 10 min to pellet proteins. Supernatants were transferred into clean 6 mL vials and evaporated to dryness using a TurboVap concentrator system. Samples were reconstituted using 600 μL 20% acetonitrile in water, briefly vortexed to resuspend, then aliquoted for LC-MS/MS analysis. Controls incubations also included “No drug control” and “no cell control” samples treated in a similar manner as test article samples.
(§4) Metabolite profiling and identification experiments were conducted by LC-MS/MS, composed of an HPLC system consisting of an Agilent Technologies 1200 Series Model G1322A Degasser, Agilent Technologies 1200 Series Model G1312A Binary Pump, Shimadzu HTc autosampler, and Valco Model E60 Flow Diversion Valve, and coupled to an API 4000 mass spectrometer. Separations were accomplished on a Gemini C18 column (150 × 2.0 mm, 5-μm particles; Phenomenex Inc., Torrance, CA), preceded by a SecurityGuard C18 guard column (4.0 × 2.0 mm; Phenomenex Inc.). A two-component mobile phase, consisted of a linear gradient of water containing 0.5% formic acid (v/v) and methanol:acetonitrile (1:1, v/v) containing 0.5% formic acid (v/v), was pumped at 0.3 mL/min. The first 4 min of flow was diverted away from the mass spectrometer. Analysis of the positive control samples was conducted with an HPLC system consisting of two Shimadzu LC-10ATvp pumps and a LEAP Pal autosampler. Separations were accomplished on a Luna C8(2) column (50 × 2.0 mm, 3-μm particles; Phenomenex Inc., Torrance, CA), preceded by a SecurityGuard C18 column (4.0 × 2.0 mm; Phenomenex Inc.). Separation was accomplished with a gradient of water containing 0.2% formic acid and 0.012% NH4OH (v/v) versus acetonitrile at an initial rate of 0.7 mL/min. An API 4000 QTrap mass spectrometer (AB Sciex, Foster City, CA) was used for analysis of positive control samples. Each mass spectrometer used was equipped with an electrospray ionization source and operated in the positive ionization mode. Metabolite identification experiments were performed by recording full scan mass spectral data (Q1MS) for all samples, and selected samples were analyzed to obtain product ion spectra (MS/MS) of test article metabolites identified in the full scan mass spectral data.

[5] = Metabolic stability (intrinsic clearance) in monkey liver microsomes; type: in vitro ADME, monkey (Cynomolgus); conditions: monkey liver microsomes
Protocol: as §1, §2

[6] = Metabolic stability (intrinsic clearance) in rat liver microsomes; type: in vitro ADME, rat (Sprague-Dawley); conditions: rat liver microsomes
Protocol: as §1, §2

[7] = Metabolite profiling and identification in human hepatocytes; type: in vitro ADME; design: key to Source (peak identified in human hepatocytes): R = Rat; hr = Human; lowercase letter indicates low abundance; h: lowercase letter indicates low abundance; conditions: for Percent Distribution (1 hr incubation) Human / Percent Distribution (2 hr incubation) Human: relative abundance among metabolites of the parent (1 μM), equal LC/MS sensitivity assumed
Protocol: as §3, §4

[8] = human, cited from earlier work
[9] = design: method as in PMID 16751263; conditions: rat, single IV doses ranging from 0.3 to 4 mg/kg; cited from earlier work
[10] = FTY720-Mitoxy incubation, Table 5
[11] = rat hepatocytes, listed as FTY720-Mitoxy C6-COOH
[12] = human hepatocytes, listed as FTY720-Mitoxy C6-COOH
[13] = rat hepatocytes, listed as FTY720-C2 C8-COOH
[14] = human hepatocytes, listed as FTY720-C2 C8-COOH

## CCCCCCCCc1ccc(CCC(N)(CO)CO)cc1 [FTY720, Fingolimod]
[1]
  intrinsic clearance interpreted in words: slow and low
[2]
  intrinsic clearance interpreted in words: slow and low
[3]
  intrinsic clearance interpreted in words: slow and low
[4]; rat hepatocytes
  phosphorylated metabolites: identified
[5]
  intrinsic clearance interpreted in words: slow and low
[6]
  intrinsic clearance interpreted in words: slow and low
[7]; human hepatocytes
  phosphorylated metabolites: identified
[8]; after oral dosing
  elimination half-life: about 7 days
[8]; single oral doses of 1 mg
  half-life: ~ 7 days
[9]
  half-life: ~ 20 hr

## CC(=O)NC(CO)(CO)CCc1ccc(CCCC(=O)O)cc1 [FTY720-C2 C4-carboxylic acid]
[4]; FTY720-C2 incubation, Table 4
  Source (peak identified in rat hepatocytes): R
[4]; rat hepatocytes
  Percent Distribution (1 hr incubation) Rat: 9.7%
  Percent Distribution (2 hr incubation) Rat: 12.88%
[7]; FTY720-C2 incubation, Table 4
  Source (peak identified in human hepatocytes): H
[7]; human hepatocytes
  Percent Distribution (1 hr incubation) Human: 23.7%
  Percent Distribution (2 hr incubation) Human: 25.57%

## O=C(O)CCCCCCCc1ccc(CCC(CO)(CO)NC(=O)CC[P+](c2ccccc2)(c2ccccc2)c2ccccc2)cc1 [FTY720-Mitoxy C8-carboxylic acid]
[4]; [10]
  Source (peak identified in rat hepatocytes): R
[4]; rat hepatocytes
  Percent Distribution (1 hr incubation) Rat: 4.4%
  Percent Distribution (2 hr incubation) Rat: 3.4%
[7]; [10]
  Source (peak identified in human hepatocytes): H
[7]; human hepatocytes
  Percent Distribution (1 hr incubation) Human: 20.0%
  Percent Distribution (2 hr incubation) Human: 27.3%

## CC(=O)NC(CO)(CO)CCc1ccc(CC(=O)O)cc1 [FTY720-C2 C2-carboxylic acid]
[4]; FTY720-C2 incubation, Table 4
  Source (peak identified in rat hepatocytes): R
[4]; rat hepatocytes
  Percent Distribution (1 hr incubation) Rat: 21.4%
  Percent Distribution (2 hr incubation) Rat: 35.72%
[7]; FTY720-C2 incubation, Table 4
  Source (peak identified in human hepatocytes): H
[7]; human hepatocytes
  Percent Distribution (1 hr incubation) Human: 3.2%
  Percent Distribution (2 hr incubation) Human: 7.21%

## O=C(O)CCCCCc1ccc(CCC(CO)(CO)NC(=O)CC[P+](c2ccccc2)(c2ccccc2)c2ccccc2)cc1 [FTY720-Mitoxy C6-carboxylic acid]
[4]; [10]
  Source (peak identified in rat hepatocytes): R
[4]; rat hepatocytes
  Percent Distribution (1 hr incubation) Rat: 83.6%
  Percent Distribution (2 hr incubation) Rat: 79.3%
[4]; [11]
  Percent Distribution (1 hr incubation) Rat: 84%
  Percent Distribution (2 hr incubation) Rat: 79%
[7]; [10]
  Source (peak identified in human hepatocytes): H
[7]; human hepatocytes
  Percent Distribution (1 hr incubation) Human: 58.6%
  Percent Distribution (2 hr incubation) Human: 54.8%
[7]; [12]
  Percent Distribution (1 hr incubation) Human: 59%
  Percent Distribution (2 hr incubation) Human: 55%

## CC(=O)NC(CO)(CO)CCc1ccc(CCCCCCCC(=O)O)cc1 [FTY720-C2 C8-carboxylic acid]
[4]; FTY720-C2 incubation, Table 4
  Source (peak identified in rat hepatocytes): R
[4]; rat hepatocytes
  Percent Distribution (1 hr incubation) Rat: 37.0%
  Percent Distribution (2 hr incubation) Rat: 39.37%
[4]; [13]
  Percent Distribution (1 hr incubation) Rat: 37%
  Percent Distribution (2 hr incubation) Rat: 39%
[7]; FTY720-C2 incubation, Table 4
  Source (peak identified in human hepatocytes): H
[7]; human hepatocytes
  Percent Distribution (1 hr incubation) Human: 49.0%
  Percent Distribution (2 hr incubation) Human: 52.13%
[7]; [14]
  Percent Distribution (1 hr incubation) Human: 49%
  Percent Distribution (2 hr incubation) Human: 52%
